Earlier results, collected in patent publication JP2018030810A, “ゲフィチニブを有効成分とする医薬錠剤の製造方法” (Nippon Kayaku Co Ltd, priority 2016, dated 2018).
Converted amounts (≈) assume the structure as drawn. Read-outs that look alike come from different tables or passages of the source.

In the case of `COc1cc2ncnc(Nc3ccc(F)c(Cl)c3)c2cc1OCCCN1CCOCC1` [ゲフィチニブ, N−(3−クロロ−4−フルオロフェニル)−7−メトキシ−6−[3−(モルフォリン−4−イル)プロポキシ]キナゾリン−4−アミン], the “solubility (in words)” value (pH1) is listed as “可溶性”, the “solubility (in words)” value (pH4〜6) is listed as “溶解度は大きく低下” and the solubility (pH6) is listed as about 1 mg/mL (≈ 2240 µM). The “solubility (in words)” value (pH7) was “実質的に不溶性”, the “aqueous solubility (in words)” value (small intestine environment, pH4〜8) was “水溶解度が極端に低下する” and the “aqueous solubility (in words)” value (stomach, acidic environment pH1〜4) was “良好な水溶解度”. For the same molecule, the “solubility (in words)” value (water) was “ほとんど溶解しない”.
